# Results reported in patent publication US9538754B2, “Combinations of pyrimethanil and monoterpenes” (Janssen Pharmaceutica NV, priority 2010, dated 2017).
# Tests used:
# Experiment in all cases: Poison Plate Assay
# Format in all cases: cell-based
# [1] = tested on: Stachybotrys atra CBS328.37; conditions: CBS328, 336 h, pyrimethanil (I) with thymol (II-a), ppm total active ingredient, Glucose Agar, 27° C., growth evaluated after two weeks, read-out: MIC-values (minimum inhibitory concentration) in ppm
# Protocol: (§1) • Name of component (I): pyrimethanil • Name of component (II): thymol (II-a) • β-thujaplicin (II-b) • Test models: Fungi: to each well of a 24-well microliter plate, 1000 μl of Glucose Agar (GA: 10 g glucose, 1.5 g K2HPO4, 2 g KH2PO4, 1 g (NH4)2SO4, 0.5 g MgSO4 and 12.5 g agar in 1 liter deionised water) containing the appropriate combination of the test compounds in one of the concentrations of a dose series is added. The nutrient medium is inoculated with the test fungi by adding a sporeimycelium suspension (10 μl) or a small piece of agar from the margin of an actively growing colony and incubated under dark at 27° C. with 70% relative humidity. […] In addition to this dose series, pyrimethanil single was also tested at 9.50-7.13-5.34-4.01-3.01-2.25-1.69-1.27-0.95-0.71-0.53-0.40 ppm in order to define a lower limit to its activity.
# (§2) A. G. Nass (1957) “Some aspects of the notions additivity, synergism and antagonism in the simultaneous activity of two antibacterial agents in vitro” Arch. intern. Pharmaco-dynamie 109: 211-228; Steinberg, D. C. (2000) “Measuring synergy” cosmetics & Toiletries 115(11): 59-62; and Lada, A., A. N. Petrocci, H. A. Green, and J. J. Merianos (1977) “Antimicrobial composition” U.S. Pat. No. 4,061,750, 3 pp.):
# (§3) [formula] wherein: • QA is the concentration of compound A in ppm, acting alone, which produced an end point (e.g. MIC), • Qa is the concentration of compound A in ppm, in the mixture, which produced an end point (e.g. MIC), • QB is the concentration of compound B in ppm, acting alone, which produced an end point (e.g. MIC), • Qb is the concentration of compound B in ppm, in the mixture, which produced an end point (e.g. MIC). When the Synergy Index is greater than 1.0, antagonism is indicated. When the SI is equal to 1.0, additivity is indicated.
# [2] = tested on: Chaetomium globosum CEB1218.2; conditions: CEB1218.2, 336 h, pyrimethanil (I) with thymol (II-a), ppm total active ingredient, Glucose Agar, 27° C., growth evaluated after two weeks, read-out: MIC-values (minimum inhibitory concentration) in ppm
# Protocol: as §1, §2, §3
# [3] = tested on: Ulocladium atrum IMI 214669a; conditions: Alternaria atra, IMI214669A, 336 h, pyrimethanil (I) with β-thujaplicin (II-b), ppm total active ingredient, Glucose Agar, 27° C., growth evaluated after two weeks, read-out: MIC-values (minimum inhibitory concentration) in ppm
# Protocol: as §1, §2, §3
smiles,measurement,setting,value
"Cc1cc(C)nc(Nc2ccccc2)n1 [component (I), 4,6-dimethyl-N-phenyl-2-pyrimidinamine]",MIC,[1],127 mg/L
same,MIC,[2],400 mg/L
same,MIC,[3],23 mg/L
